Target: T1, olfactory receptor co-receptor (Orco) (Anopheles gambiae, UniProt Q7QCC7)
T1 construct: codon-optimized Orco cDNA in pPICZA (C-terminal c-myc tag detected), expressed in Pichia pastoris GS115
T1 sequence (Q7QCC7 1-478): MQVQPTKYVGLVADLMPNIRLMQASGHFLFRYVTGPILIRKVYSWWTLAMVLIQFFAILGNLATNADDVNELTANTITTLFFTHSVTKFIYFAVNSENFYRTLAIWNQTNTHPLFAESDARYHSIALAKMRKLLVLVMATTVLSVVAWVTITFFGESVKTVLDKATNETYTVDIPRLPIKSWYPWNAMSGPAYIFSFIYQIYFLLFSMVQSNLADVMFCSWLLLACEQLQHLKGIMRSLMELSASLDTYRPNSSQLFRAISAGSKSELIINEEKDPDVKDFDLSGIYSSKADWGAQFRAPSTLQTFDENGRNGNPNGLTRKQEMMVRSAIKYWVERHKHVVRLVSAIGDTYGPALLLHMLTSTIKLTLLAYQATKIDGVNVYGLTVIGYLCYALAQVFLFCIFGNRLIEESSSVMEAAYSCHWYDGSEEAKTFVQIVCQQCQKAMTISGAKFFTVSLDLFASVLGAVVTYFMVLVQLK
Assay: fluo-4-AM calcium influx assay in Pichia pastoris expressing Orco, compared with GS115 control cells ([…] extracellular Ca2+)
Type: cell-based

Molecule `CCc1ccc(NC(=O)CSc2nnc(-c3cccnc3)n2CC)cc1` [VUAA1, 2‐(4‐ethyl‐5‐(pyridin‐3‐yl)‐4H‐1,2,4‐triazol‐3‐ylthio)‐N‐(4‐ethylphenyl)acetamide] has an EC50 of 410 µM.

From publication PMC7851572, “A Pichia biosensor for high‐throughput analyses of compounds that can influence mosquito behavior” (MicrobiologyOpen, 2020)
